# Results: patent US20210338755A1, “AQUEOUS EXTRACT FROM CELLS OF FITZROYA CUPRESSOIDES (ALERCE) WITH ANTI- AGING AND SKIN REGENERATION PROPERTIES” (RUBISCO BIOTECHNOLOGY, priority 2018, published 2021)
# Tested on: HaCaT cells
# Assay: Scratch wound experiment with cell division inhibitor mitomycin C
# Assay type: cell-based
# Conditions: 48 hours; 20 μmol/L mitomycin C before treatment with 0.125% v/v extract
# Text: Evaluation of the effect of mitomycin C in wound healing repair. […] 20 μmol/L of Mitomycin C was applied before each treatment.
# The application of mitomycin inhibits division of the HaCaT cells that, together with cell migration, are the two mechanisms involved in wound healing repair.
structure (smiles),measurement,value
CO[C@@]12[C@H](COC(N)=O)C3=C(C(=O)C(C)=C(N)C3=O)N1C[C@@H]1N[C@@H]12 [mitomycin C],effect on wound closure induced by Alerce cell culture extract,significantly inhibited the wound closure
